Source: the NIST ThermoML archive (doi:10.1016/j.jct.2016.09.040)
Numbers after ± are expanded uncertainties.

Experiment: mn = molality of the nth substance listed, in mol/kg
Conditions: 75 kPa, Liquid; for viscosity: Capillary tube (Ostwald / Ubbelohde) method; for speed of sound: Frequency=3 MHz, Sing-around technique in a fixed-path interferometer; for mass density: Vibrating tube method

With `CCC(N)C(=O)O` (stereo not drawn) [(.+-.)-α-aminobutyric acid] + O the viscosity (293.15 K, m1 = 0.09999) was 1.042 ± 0.031 mPa·s, the viscosity (293.15 K, m1 = 0.2999) was 1.109 ± 0.031 mPa·s and the viscosity (293.15 K, m1 = 0.4999) was 1.181 ± 0.031 mPa·s. The viscosity (293.15 K, m1 = 0.7) was 1.266 ± 0.031 mPa·s, the viscosity (293.15 K, m1 = 0.9001) was 1.358 ± 0.031 mPa·s and the viscosity (293.15 K, m1 = 1) was 1.416 ± 0.031 mPa·s. For the same compound, the speed of sound (293.15 K, m1 = 0.09999) was 1490.7 ± 4.1 m/s, the speed of sound (293.15 K, m1 = 0.2999) was 1506.8 ± 4.1 m/s and the speed of sound (293.15 K, m1 = 0.4999) was 1522.6 ± 4.1 m/s. It also gave a speed of sound (293.15 K, m1 = 0.7) of 1538.5 ± 4.1 m/s, a speed of sound (293.15 K, m1 = 0.9001) of 1554.2 ± 4.1 m/s and a speed of sound (293.15 K, m1 = 1) of 1561.8 ± 4.1 m/s. The mass density (293.15 K, m1 = 0.09999) was 1001.01 ± 0.6 kg/m3, the mass density (293.15 K, m1 = 0.2999) was 1006.4 ± 0.6 kg/m3 and the mass density (293.15 K, m1 = 0.4999) was 1011.57 ± 0.6 kg/m3. For the same compound, the mass density (293.15 K, m1 = 0.7) was 1016.56 ± 0.6 kg/m3, the mass density (293.15 K, m1 = 0.9001) was 1021.37 ± 0.6 kg/m3 and the mass density (293.15 K, m1 = 1) was 1023.7 ± 0.6 kg/m3. It also gave a viscosity (298.15 K, m1 = 0.09999) of 0.905 ± 0.03 mPa·s, a viscosity (298.15 K, m1 = 0.2999) of 0.97 ± 0.031 mPa·s and a viscosity (298.15 K, m1 = 0.4999) of 1.057 ± 0.031 mPa·s. The viscosity (298.15 K, m1 = 0.7) was 1.121 ± 0.031 mPa·s, the viscosity (298.15 K, m1 = 0.9001) was 1.199 ± 0.031 mPa·s and the viscosity (298.15 K, m1 = 1) was 1.243 ± 0.031 mPa·s. It also gave a speed of sound (298.15 K, m1 = 0.09999) of 1504.7 ± 4.1 m/s, a speed of sound (298.15 K, m1 = 0.2999) of 1519.9 ± 4.1 m/s and a speed of sound (298.15 K, m1 = 0.4999) of 1535.1 ± 4.1 m/s. The speed of sound (298.15 K, m1 = 0.7) was 1550 ± 4.1 m/s, the speed of sound (298.15 K, m1 = 0.9001) was 1565.1 ± 4.1 m/s and the speed of sound (298.15 K, m1 = 1) was 1572.4 ± 4.1 m/s. The mass density (298.15 K, m1 = 0.09999) was 999.805 ± 0.6 kg/m3, the mass density (298.15 K, m1 = 0.2999) was 1005.12 ± 0.6 kg/m3 and the mass density (298.15 K, m1 = 0.4999) was 1010.25 ± 0.6 kg/m3. The mass density (298.15 K, m1 = 0.7) was 1015.2 ± 0.6 kg/m3, the mass density (298.15 K, m1 = 0.9001) was 1019.98 ± 0.6 kg/m3 and the mass density (298.15 K, m1 = 1) was 1022.3 ± 0.6 kg/m3. It also gave a viscosity (303.15 K, m1 = 0.09999) of 0.813 ± 0.03 mPa·s, a viscosity (303.15 K, m1 = 0.2999) of 0.869 ± 0.03 mPa·s and a viscosity (303.15 K, m1 = 0.4999) of 0.93 ± 0.03 mPa·s. It also gave a viscosity (303.15 K, m1 = 0.7) of 0.997 ± 0.031 mPa·s, a viscosity (303.15 K, m1 = 0.9001) of 1.061 ± 0.031 mPa·s and a viscosity (303.15 K, m1 = 1) of 1.097 ± 0.031 mPa·s. For the same compound, the speed of sound (303.15 K, m1 = 0.09999) was 1516.8 ± 4.1 m/s, the speed of sound (303.15 K, m1 = 0.2999) was 1531.3 ± 4.1 m/s and the speed of sound (303.15 K, m1 = 0.4999) was 1545.8 ± 4.1 m/s. It also gave a speed of sound (303.15 K, m1 = 0.7) of 1560 ± 4.1 m/s, a speed of sound (303.15 K, m1 = 0.9001) of 1574.5 ± 4.1 m/s and a speed of sound (303.15 K, m1 = 1) of 1581.7 ± 4.1 m/s. The mass density (303.15 K, m1 = 0.09999) was 998.37 ± 0.6 kg/m3, the mass density (303.15 K, m1 = 0.2999) was 1003.66 ± 0.6 kg/m3 and the mass density (303.15 K, m1 = 0.4999) was 1008.75 ± 0.6 kg/m3. It also gave a mass density (303.15 K, m1 = 0.7) of 1013.66 ± 0.6 kg/m3, a mass density (303.15 K, m1 = 0.9001) of 1018.4 ± 0.6 kg/m3 and a mass density (303.15 K, m1 = 1) of 1020.7 ± 0.6 kg/m3. It also gave a viscosity (308.15 K, m1 = 0.09999) of 0.731 ± 0.03 mPa·s, a viscosity (308.15 K, m1 = 0.2999) of 0.781 ± 0.03 mPa·s and a viscosity (308.15 K, m1 = 0.4999) of 0.834 ± 0.03 mPa·s. For the same compound, the viscosity (308.15 K, m1 = 0.7) was 0.891 ± 0.03 mPa·s, the viscosity (308.15 K, m1 = 0.9001) was 0.949 ± 0.031 mPa·s and the viscosity (308.15 K, m1 = 1) was 0.979 ± 0.031 mPa·s. The speed of sound (308.15 K, m1 = 0.09999) was 1526.9 ± 4.1 m/s, the speed of sound (308.15 K, m1 = 0.2999) was 1540.8 ± 4.1 m/s and the speed of sound (308.15 K, m1 = 0.4999) was 1554.7 ± 4.1 m/s. It also gave a speed of sound (308.15 K, m1 = 0.7) of 1568.6 ± 4.1 m/s, a speed of sound (308.15 K, m1 = 0.9001) of 1582.5 ± 4.1 m/s and a speed of sound (308.15 K, m1 = 1) of 1589.5 ± 4.1 m/s. It also gave a mass density (308.15 K, m1 = 0.09999) of 996.759 ± 0.6 kg/m3, a mass density (308.15 K, m1 = 0.2999) of 1002 ± 0.6 kg/m3 and a mass density (308.15 K, m1 = 0.4999) of 1007.05 ± 0.6 kg/m3. For the same compound, the mass density (308.15 K, m1 = 0.7) was 1011.92 ± 0.6 kg/m3, the mass density (308.15 K, m1 = 0.9001) was 1016.62 ± 0.6 kg/m3 and the mass density (308.15 K, m1 = 1) was 1018.9 ± 0.6 kg/m3. For the same compound, the viscosity (313.15 K, m1 = 0.09999) was 0.661 ± 0.03 mPa·s, the viscosity (313.15 K, m1 = 0.2999) was 0.706 ± 0.03 mPa·s and the viscosity (313.15 K, m1 = 0.4999) was 0.754 ± 0.03 mPa·s. For the same compound, the viscosity (313.15 K, m1 = 0.7) was 0.804 ± 0.03 mPa·s, the viscosity (313.15 K, m1 = 0.9001) was 0.853 ± 0.03 mPa·s and the viscosity (313.15 K, m1 = 1) was 0.895 ± 0.03 mPa·s. It also gave a speed of sound (313.15 K, m1 = 0.09999) of 1535.7 ± 4.1 m/s, a speed of sound (313.15 K, m1 = 0.2999) of 1548.7 ± 4.1 m/s and a speed of sound (313.15 K, m1 = 0.4999) of 1561.8 ± 4.1 m/s. For the same compound, the speed of sound (313.15 K, m1 = 0.7) was 1574.7 ± 4.1 m/s, the speed of sound (313.15 K, m1 = 0.9001) was 1588 ± 4.1 m/s and the speed of sound (313.15 K, m1 = 1) was 1595.1 ± 4.1 m/s. The mass density (313.15 K, m1 = 0.09999) was 994.9 ± 0.6 kg/m3, the mass density (313.15 K, m1 = 0.2999) was 999.99 ± 0.6 kg/m3 and the mass density (313.15 K, m1 = 0.4999) was 1004.83 ± 0.6 kg/m3. It also gave a mass density (313.15 K, m1 = 0.7) of 1009.41 ± 0.6 kg/m3, a mass density (313.15 K, m1 = 0.9001) of 1013.72 ± 0.6 kg/m3 and a mass density (313.15 K, m1 = 1) of 1015.78 ± 0.6 kg/m3.
